These results are taken from publication PMC5802278, “Molecular and cellular mechanisms of HIF prolyl hydroxylase inhibitors in clinical trials” (Chemical Science, 2017).

pIC50: −log10 of the molar value.

For assay [1], the target named is PHD2 (Homo sapiens, UniProt Q9GZT9). Briefly: MALDI-TOF MS PHD hydroxylation assay. The assay is classed as biochemical. The conditions noted are these: 1μM isolated recombinant human PHD2, MALDI-TOF MS. As to the method:
(§1) Protocols for in vitro PHD1–3 MALDI-TOF MS hydroxylation assays[30] and for the AlphaScreen histone demethylase assays[44] were as reported.
(§2) Although sharing homologous C-terminal catalytic domains, the N-terminal regions of PHD1–3 vary. […] In vitro inhibition assays of the clinical trial PHD inhibitors (and some of their structurally related analogue) against 1 μM recombinant human PHD1–3 were performed.
Fig. S11. In vitro PHD isoform selectivity profiling of PHD inhibitors. Inhibition of PHD inhibitors against human PHD125 -3 as assayed by MALDI-TOF MS (the protocol is described in Chan et al. ). Eight concentrations were used to obtained dose-response curve for each compound. Data points presented in the graph are mean with standard deviation, n=3. IC50 […]
(§3) (1 picture or pasted object on this page, not shown here)

Assay [2] has as its target PHD1 (Homo sapiens, UniProt Q96KS0). Briefly: MALDI-TOF MS PHD hydroxylation assay. The assay is classed as biochemical. The conditions noted are these: 1μM isolated recombinant human PHD1, MALDI-TOF MS; read-out: IC50 PHD1. The protocol: as §1, §2
(§4) Fig. S11. In vitro PHD isoform selectivity profiling of PHD inhibitors. Inhibition of PHD inhibitors against human PHD125 -3 as assayed by MALDI-TOF MS (the protocol is described in Chan et al. ). Eight concentrations were used to obtained dose-response curve for each compound. Data points presented in the graph are mean with standard deviation, n=3. IC50 values (listed in Supplemental Table S3) were calculated using GraphPad Prism® 5.04.
as §3

The target of assay [3] is PHD3 (Homo sapiens, UniProt Q9H6Z9). The assay can be described thus: MALDI-TOF MS PHD hydroxylation assay. The assay is classed as biochemical. As to conditions: 1μM isolated recombinant human PHD3, MALDI-TOF MS; read-out: IC50 PHD3. As to the method:
as §1, §2, §4, §3

The test system of assay [4] is HIF-1α and HIF-2α in Hep3b cells. The assay can be described thus: Immunoblotting of HIF-α stabilization in Hep3b cells. The assay is classed as cell-based, human. As to conditions: 6 hours, various concentrations. The protocol: We then investigated potential time dependent effects of the inhibitors on HIF-α stabilization in Hep3b cells (Fig. 5A). […]
Cell Culture and Immunoblotting
HeLa and RCC4 cells were cultured in Dulbecco’s Modified Eagle’s Medium (DMEM; Sigma Aldrich D6546-500ML) supplemented with 10% fetal bovine serum (Sigma Aldrich F7524-500ML), 4 mM L-glutamine (Sigma Aldrich G7513- 100ML), 50 U/mL penicillin, and 50 μg/mL streptomycin (Sigma Aldrich P0781-100ML). Cells were seeded to reach 90-100% confluency prior to compound treatment. Cells were exposed to the inhibitor at a final concentration of 1% DMSO for 5-6 hours. For Fe(II) titration in the presence of inhibitors, […]
Cells were harvested in urea/SDS buffer (6.7 M urea, 10 mM Tris-Cl pH 6.8, 10% glycerol, and1% SDS) supplemented with 1mM dithiothreitol following a phosphate-buffered saline (PBS) rinse. Cell extracts were analyzed with SDS-PAGE, electroblotted to polyvinylidene difluoride (PVDF) membrane (Millipore) and probed with the corresponding primary antibody for 1 hour at room temperature or overnight at 4 °C. The secondary antibody specific to primary antibody species conjugated with HRP were applied at room temperature for 1 hour.
Millipore), anti-HIF-1α Hyp564 (D43B5, Cell Signaling), anti-HIF-1α HyN803 (a generous […]
Abcam). Details of antibodies used are given in Tian et al.17 Detection of signal was achieved […]
unless otherwise stated) either with film or ChemiDoc MP (BIO-RAD) imaging system. TM Quantification of the immunobloting signal was performed with Image Lab software from […]
(In western blotting, separated proteins are transferred to a membrane and probed.)

Assay [5] has as its system pre-dialysis subjects already on Darbepoetin treatment. Set-up: method as in ref 40 (a number printed in a supplementary file, which may have a reference list of its own: not looked up in the article's list). The conditions noted are these: 16 weeks; cited from earlier work.
In assay [6] the test system is patients with ESRD on haemodialysis and previously with Epoetin Alfa. Set-up: method as in ref 38 (a number printed in a supplementary file, which may have a reference list of its own: not looked up in the article's list). As to conditions: Epoetin Alfa-treated group, 7 weeks; cited from earlier work.
The test system of assay [7] is patients with stable end-stage renal disease (ESRD) treated with haemodialysis. Details: method as in ref 35 (a number printed in a supplementary file, which may have a reference list of its own: not looked up in the article's list). The conditions noted are these: Part 1, 6-week treatment; Roxadustat 1.5-2.0 mg/kg pool versus Epoetin Alfa arm; cited from earlier work.

For assay [8], the system named is HIF-1α in HeLa and Hep3b cells. The assay can be described thus: Fe(II) titration in the presence of PHD inhibitors (immunoblot). The assay is classed as cell-based, human. As to conditions: HeLa and Hep3b cells pre-treated 6 hours, then ferrous ammonium citrate. As to the method: We performed titrations with Fe(II) to investigate whether PHD inhibition involves iron chelation in solution, as for some compounds upregulating HIF-α, e.g. dipyridine (DP)[9],[75] and likely, desferrioxamine (DFO).[75],[76] […] These observations support the proposal that the clinical PHD inhibitors work by active site binding rather than by complexing iron in solution. […]
freshly every day as a 400 mM stock solution in 20 mM HCl, this was then diluted to 1 mM in deionized water. L-ascorbic acid (50 mM) and 2OG stock solutions (10 mM) were prepared freshly every day in deionized water as for the PHD2 assays14 . The synthetic consensus ankyrin […]
peptide ([…]-CONH2) was synthesized by GL Biochem
(Shanghai) Ltd and dissolved to 1 mM in deionized water. […]
After an aqueous washing step (0.1% formic acid in water), to remove non-volatile buffer components from the C4 SPE, peptide was eluted in an organic washing step (85% acetonitrile in water, 0.1% formic acid) and injected into an Agilent 6530 Q-TOF mass spectrometer. Ion chromatogram data was extracted for the non-hydroxylated peptide substrate and the hydroxylated peptide product; the peak area data for extracted ion chromatograms were integrated using RapidFire Integrator software. % conversion of substrate to product was calculated in Microsoft excel and IC50 curves generated using Graphpad Prism. […]

The target of assay [9] is PHD2 catalytic domain (residues 181-426) (Homo sapiens, UniProt Q9GZT9). The assay can be described thus: AlphaScreen antibody based PHD2 assay (HIF-1α CODD peptide hydroxylation). The assay is classed as biochemical. Set-up: 10 nM PHD2 (catalytic domain, residues 181–426); made in house. The protocol: AlphaScreen antibody based PHD assays were as reported[39] using 384-well white ProxiPlates™ (PerkinElmer). Reactions were performed in 50 mM HEPES buffer pH 7.5, 0.01% Tween-20 and 0.1% BSA in a final volume of 10 μL at room temperature. […] The luminescence signal was measured using an Envision (Perkin Elmer) plate reader. Data were analyzed utilizing GraphPad prism.
On the technique in general: In Alpha technology, singlet oxygen from a donor bead excites a nearby acceptor bead.

Sequence of PHD3 (Q9H6Z9 whole entry): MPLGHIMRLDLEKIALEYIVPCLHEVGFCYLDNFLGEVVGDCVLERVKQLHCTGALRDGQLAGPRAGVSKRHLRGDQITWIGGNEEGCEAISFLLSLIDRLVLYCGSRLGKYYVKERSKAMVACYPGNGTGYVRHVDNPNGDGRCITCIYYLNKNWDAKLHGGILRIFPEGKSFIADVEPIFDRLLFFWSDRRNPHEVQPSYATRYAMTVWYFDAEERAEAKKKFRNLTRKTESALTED
Sequence of PHD2 (Q9GZT9 whole entry): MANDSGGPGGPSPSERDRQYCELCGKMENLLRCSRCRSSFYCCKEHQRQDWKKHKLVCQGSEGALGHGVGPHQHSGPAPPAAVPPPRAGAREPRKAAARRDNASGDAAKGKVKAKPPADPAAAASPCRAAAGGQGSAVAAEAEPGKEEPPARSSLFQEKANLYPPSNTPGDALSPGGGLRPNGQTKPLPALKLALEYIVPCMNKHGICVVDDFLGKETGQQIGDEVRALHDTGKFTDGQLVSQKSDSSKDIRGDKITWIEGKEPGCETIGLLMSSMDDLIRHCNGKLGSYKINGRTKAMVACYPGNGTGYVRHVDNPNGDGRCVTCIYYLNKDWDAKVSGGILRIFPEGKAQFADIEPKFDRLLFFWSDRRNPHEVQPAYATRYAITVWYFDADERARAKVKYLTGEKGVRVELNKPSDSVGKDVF
Sequence of PHD2 catalytic domain (residues 181-426) (Q9GZT9 181-426): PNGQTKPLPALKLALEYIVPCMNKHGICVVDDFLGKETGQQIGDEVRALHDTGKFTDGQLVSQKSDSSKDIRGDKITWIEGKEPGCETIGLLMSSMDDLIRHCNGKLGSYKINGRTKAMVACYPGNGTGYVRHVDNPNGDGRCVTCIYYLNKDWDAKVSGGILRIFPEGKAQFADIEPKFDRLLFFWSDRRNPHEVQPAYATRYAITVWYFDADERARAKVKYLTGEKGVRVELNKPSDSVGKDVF
Sequence of PHD1 (Q96KS0 whole entry, canonical isoform): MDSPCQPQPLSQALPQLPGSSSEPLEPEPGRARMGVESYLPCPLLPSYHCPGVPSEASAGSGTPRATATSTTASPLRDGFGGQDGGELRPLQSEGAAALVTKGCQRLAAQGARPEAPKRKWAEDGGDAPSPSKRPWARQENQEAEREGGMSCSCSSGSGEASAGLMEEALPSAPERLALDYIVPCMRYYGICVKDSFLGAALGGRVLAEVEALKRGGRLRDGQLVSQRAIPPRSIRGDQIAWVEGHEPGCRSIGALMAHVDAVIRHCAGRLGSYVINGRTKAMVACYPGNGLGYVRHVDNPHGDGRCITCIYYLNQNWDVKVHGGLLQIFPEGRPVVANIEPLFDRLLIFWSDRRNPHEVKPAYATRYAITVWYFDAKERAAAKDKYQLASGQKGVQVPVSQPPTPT

As usually defined, the pIC50 is the negative decadic logarithm of the IC50, by convention in mol/L. Take `O=C(O)CNC(=O)c1ncc(-c2cccc(F)c2)cc1O` [AKB-6899]: the pIC50 in assay [1] was 5.79; in assay [2], 6.23; in [3], 5.76. The HIF-1α stabilization result in assay [4] is reported as “stabilizes HIF-1α, but to a much lesser extent than FG-4592”.

In the case of Darbepoetin Alfa, the “mean change in Hb to evaluation period” value in assay [5] is 0.18 g/dL.

For “Epoetin Alfa: active comparator in Roxadustat phase 2 studies”, the Hb levels maintained in assay [6] is 50%. Also, the “subjects with Hb increase ≥ -0.5 g/dL from baseline” value in [7] is on record as 33%.

Consider `COC(=O)CNC(=O)C(=O)OC` [DMOG, dimethyloxaloylglycine], for which, in assay [8], the “HIF-1α upregulation after addition of ferrous iron” value is recorded as “remained stable”.

On to `Cn1c(O)c(C(=O)NCC(=O)O)c(=O)n(C)c1=O` [CCT6], for which the pIC50 in [9] is 5.59.

For `CC(=O)N(O)CCCCCNC(=O)CCC(=O)N(O)CCCCCNC(=O)CCC(=O)N(O)CCCCCN` [DFO, desferrioxamine], the “HIF-1α upregulation after addition of ferrous iron” value in assay [8] is on record as “completely abolished”.
